Source: patent publication US20100086483A1, “METHOD OF MULTIDETECTOR COMPUTED TOMAGRAPHY” (Gilead Palo Alto, Inc., priority 2008, published 2010)

Test system: conscious dogs
Assay: Effects of caffeine on regadenoson-induced coronary vasodilation and changes in hemodynamics in conscious dogs (Part II)
Assay type: in vivo, dog
Details: for change of maximum increase in CBF induced by regadenoson vs control: regadenoson 5 μg/kg IV, p>0.05
Protocol: Sixteen chronically instrumented male mongrel dogs weighing from 22-30 kg were used in the study. The animal protocol was approved by the Institutional Animal Care and Use Committee of New York Medical College and conforms to the Guide for the Care and Use of Laboratory Animal by the United States National Institutes of Health.
Dogs were sedated with acepromazine (0.3 mg/kg, IM) and anesthetized with pentobarbital sodium (25 mg/kg, IV). After intubation, dogs were artificially ventilated with room air. A thoracotomy was made in the fifth intercostal space using sterile techniques. A Tygon catheter (Cardiovascular Instruments, Wakefield, Mass.) was inserted into the descending thoracic aorta and another one was inserted into the left atrium. In 9 dogs, an ultrasound flow transducer (Transonic Systems, Ithaca, N.Y.) was placed around the left circumflex coronary artery. A solid-state pressure gauge (P6.5, Konisberg Instruments, Pasadena, Calif.) was placed into the left ventricle through the apex. The chest was closed in layers. The catheters and wires were tunneled subcutaneously and externalized through the skin at the back of the dog's neck. Dogs were allowed to recover from the surgery before experiments were performed, and were trained to lie on a table.
Phasic arterial pressure was measured by connecting the aortic catheter to a strain gauge transducer (P23 ID, LDS Test and Measurement, Valley View, Ohio). Left ventricular pressures were measured by the solid pressure gauge. CBF (mL/min) was measured from an ultrasound flow transducer using a Transonic flowmeter (T206, Transonic Systems, Ithaca, N.Y.). Two indices were used to describe the regadenoson-induced coronary vasodilation: 1) the maximum increase in CBF and 2) the duration of the 2-fold increase in CBF (the period of time that CBF was elevated to a level ≧2-fold of baseline CBF). All pressure and flow data were acquired and analyzed using a Ponemah System (Version 3.30 or 4.20, LDS Test and Measurement, Valley View, Ohio). MAP and HR were calculated from phasic blood pressure, and LV dP/dtMax was calculated from the left ventricular systolic pressure.
On the day of an experiment, a dog was placed on a table, where it lay quietly during the experiment. A catheter was inserted into a peripheral vein in the leg and attached to an infusion line to administer drugs without disturbing the dog. The experiment was begun after MAP, HR and CBF were stable.
Each dog received an IV injection of 5 μg/kg of regadenoson. […] LVSP, LV dP/dtMax, MAP, HR and CBF were recorded continuously. Blood samples were taken from the left atrial catheter at 1, 3, 5, 15, 30, 45 and 60 min following injections of regadenoson.
In 4 dogs, two doses of regadenoson (5 μg/kg, IV) were given 90 min apart (without blood sampling) to determine if there is tachyphylaxis of regadenoson-induced coronary vasodilation.
The statistical significance of a difference between the value of a parameter at baseline and at the indicated time point after drug administration was determined using a One-Way Repeated Measures ANOVA followed by Tukey's Test. […] Results with p<0.05 were considered to be significant. […] All data are presented as Mean±SEM.

[1] = regadenoson 5 μg/kg IV 45 min after caffeine 1 mg/kg IV, 1 min
[2] = regadenoson 5 μg/kg IV 45 min after caffeine 1 mg/kg IV, 2 min
[3] = regadenoson 5 μg/kg IV 45 min after caffeine 1 mg/kg IV, 3 min
[4] = regadenoson 5 μg/kg IV 45 min after caffeine 1 mg/kg IV, 20 min
[5] = regadenoson 5 μg/kg IV 45 min after caffeine 2 mg/kg IV, 1 min

Cn1c(=O)c2c(ncn2C)n(C)c1=O [Caffeine, caffeine]
HR (45 min after caffeine 1 mg/kg IV, before regadenoson (baseline)): 74 ± 5 bpm
HR (45 min after caffeine 2 mg/kg IV, before regadenoson (baseline)): 75 ± 5 bpm
HR (45 min after caffeine 4 mg/kg IV, before regadenoson (baseline)): 81 ± 9 bpm
HR (45 min after caffeine 10 mg/kg IV, before regadenoson (baseline)): 78 ± 6 bpm
baseline CBF before vs after caffeine treatment (45 min after caffeine 1, 2, 4 and 10 mg/kg): not significantly different
change of maximum increase in CBF induced by regadenoson vs control (caffeine 1 mg/kg IV): 2±3%
change of maximum increase in CBF induced by regadenoson vs control (caffeine 2 mg/kg IV): −0.7±3%
change of maximum increase in CBF induced by regadenoson vs control (caffeine 4 mg/kg IV): −16±5%
change of maximum increase in CBF induced by regadenoson vs control (caffeine 10 mg/kg IV): −13±8%
effect on hemodynamics at 45 min following caffeine administration (caffeine at 1, 2, 4 or 10 mg/kg): did not alter hemodynamics significantly
regadenoson-induced increase in LV dP/dtMax vs without caffeine (in the presence of caffeine 1 mg/kg): slightly greater
regadenoson-induced increase in LV dP/dtMax vs without caffeine (in the presence of caffeine 10 mg/kg): not altered
regadenoson-induced increase in LV dP/dtMax vs without caffeine (in the presence of caffeine at 2 and 4 mg/kg): slightly smaller
HR (regadenoson 5 μg/kg IV 45 min after caffeine 1 mg/kg IV, 0.5 min): 126 ± 7 bpm
HR [1]: 135 ± 9 bpm
MAP [1]: 100 ± 4 mm Hg
HR [2]: 131 ± 12 bpm
MAP [2]: 102 ± 4 mm Hg
HR [3]: 119 ± 9 bpm
MAP [3]: 101 ± 5 mm Hg
HR (regadenoson 5 μg/kg IV 45 min after caffeine 1 mg/kg IV, 4 min): 110 ± 4 bpm
HR (regadenoson 5 μg/kg IV 45 min after caffeine 1 mg/kg IV, 5 min): 106 ± 7 bpm
HR (regadenoson 5 μg/kg IV 45 min after caffeine 1 mg/kg IV, 10 min): 89 ± 7 bpm
HR (regadenoson 5 μg/kg IV 45 min after caffeine 1 mg/kg IV, 15 min): 87 ± 7 bpm
HR [4]: 81 ± 8 bpm
MAP [4]: 102 ± 4 mm Hg
HR (regadenoson 5 μg/kg IV 45 min after caffeine 2 mg/kg IV, 0.5 min): 121 ± 10 bpm
HR [5]: 125 ± 10 bpm
MAP [5]: 102 ± 7 mm Hg
HR (regadenoson 5 μg/kg IV 45 min after caffeine 2 mg/kg IV, 2 min): 122 ± 5 bpm
HR (regadenoson 5 μg/kg IV 45 min after caffeine 2 mg/kg IV, 3 min): 110 ± 3 bpm
HR (regadenoson 5 μg/kg IV 45 min after caffeine 2 mg/kg IV, 4 min): 106 ± 4 bpm
HR (regadenoson 5 μg/kg IV 45 min after caffeine 2 mg/kg IV, 5 min): 97 ± 3 bpm
HR (regadenoson 5 μg/kg IV 45 min after caffeine 2 mg/kg IV, 10 min): 84 ± 5 bpm
HR (regadenoson 5 μg/kg IV 45 min after caffeine 2 mg/kg IV, 15 min): 85 ± 6 bpm
HR (regadenoson 5 μg/kg IV 45 min after caffeine 2 mg/kg IV, 20 min): 84 ± 5 bpm
HR (regadenoson 5 μg/kg IV 45 min after caffeine 4 mg/kg IV, 0.5 min): 126 ± 12 bpm
HR (regadenoson 5 μg/kg IV 45 min after caffeine 4 mg/kg IV, 1 min): 114 ± 11 bpm
HR (regadenoson 5 μg/kg IV 45 min after caffeine 4 mg/kg IV, 2 min): 106 ± 12 bpm
HR (regadenoson 5 μg/kg IV 45 min after caffeine 4 mg/kg IV, 3 min): 102 ± 7 bpm
HR (regadenoson 5 μg/kg IV 45 min after caffeine 4 mg/kg IV, 4 min): 94 ± 8 bpm
HR (regadenoson 5 μg/kg IV 45 min after caffeine 4 mg/kg IV, 5 min): 94 ± 7 bpm
HR (regadenoson 5 μg/kg IV 45 min after caffeine 4 mg/kg IV, 10 min): 85 ± 8 bpm
HR (regadenoson 5 μg/kg IV 45 min after caffeine 4 mg/kg IV, 15 min): 85 ± 8 bpm
HR (regadenoson 5 μg/kg IV 45 min after caffeine 4 mg/kg IV, 20 min): 87 ± 7 bpm
HR (regadenoson 5 μg/kg IV 45 min after caffeine 10 mg/kg IV, 0.5 min): 115 ± 12 bpm
HR (regadenoson 5 μg/kg IV 45 min after caffeine 10 mg/kg IV, 1 min): 102 ± 6 bpm
HR (regadenoson 5 μg/kg IV 45 min after caffeine 10 mg/kg IV, 2 min): 106 ± 11 bpm
HR (regadenoson 5 μg/kg IV 45 min after caffeine 10 mg/kg IV, 3 min): 96 ± 7 bpm
HR (regadenoson 5 μg/kg IV 45 min after caffeine 10 mg/kg IV, 4 min): 94 ± 8 bpm
HR (regadenoson 5 μg/kg IV 45 min after caffeine 10 mg/kg IV, 5 min): 93 ± 5 bpm
HR (regadenoson 5 μg/kg IV 45 min after caffeine 10 mg/kg IV, 10 min): 88 ± 7 bpm
HR (regadenoson 5 μg/kg IV 45 min after caffeine 10 mg/kg IV, 15 min): 88 ± 6 bpm
HR (regadenoson 5 μg/kg IV 45 min after caffeine 10 mg/kg IV, 20 min): 86 ± 4 bpm
